We go through one substance from article PMC6240096, “A hPSC-based platform to discover gene-environment interactions that impact human β-cell and dopamine neuron survival” (Nature Communications, 2018).

The subject of assay [1] is MIN6 cells. The assay is described as follows: Apoptosis analysis (Annexin V flow cytometry, active caspase-3 staining). The class given is cell-based, mouse. Particulars: immunocytochemistry, 1.6 µM. The procedure:
Cells were fixed with 10% (v/v) formalin for 20 min at room temperature (RT) and blocked in a solution of Mg^2+- and Ca^2+-free PBS containing 5% horse serum and 0.3% Triton-X for 1 h at room temperature and followed by incubation with primary antibody at 4 °C overnight. […]
Cells were dissociated by Accutase (Stem Cells) and washed with cold DPBS and then detected with FITC Annexin V Apoptosis Detection Kit I (BD Bioscience, 556547), and analyzed within 1 h by FACSVantage SE (Becton Dickinson). […]
cells. (b, c) Flow cytometry analysis (b) and quantification (c) of the percentage of […]
Etoposide was used as a positive control. Values presented as mean±S.D. (d, e) Immunocytochemistry analysis (d) and quantification (e) of the percentage of Active Caspase-3+ cells in 1.6 µM propargite treated MIN6 cells (n=3). […]

A further assay has as its system HuC/D+ neurons. Description: Inhibition curve / survival of hESC-derived neurons. The class given is cell-based, human. The procedure: hESCs-derived INS^+ cells, MSCs[43], neurons, and hepatocytes[44] were derived based on the reported protocols and re-plated on 96-well plates with Accutase digestion. Cardiomyocytes (CMs) were differentiated from H9-MYH6: mCherry reporter line, based on the reported protocol. After overnight incubation, cells were treated with DMSO or different doses of hit compounds for 4 days. After fixation, the cells were stained with markers for each cell type. DAPI was used to stain cell nuclei. Plates were analyzed by ImageXpress^MICRO Automated High-Content Analysis System.
Supplementary Figure 4. Assessment of the toxic effect of propargite on different type […]
(a) Flow cytometry char acterization of CD29+ and CD73+ mesenchymal stem cells (MSCs) derived from H1 hESCs. (b-c) microscope image (b) and flow cytometry (c) characterization of cardiomyocytes expressing MYH6+ derived from a MYH6:mCherry reporter hESC line. (d-e) Immunocytochemistry characterization of MAP2+/TUJ1+ and HuC/D+/MAP2+ neurons (d) and A1AT+/ASGPR1+ hepatocytes (e) derived from H1 hESCs. All the cells were counterstained by DAPI (blue). Scale bars, 100 µm. (f) Inhibition curve of propargite on pancreatic β-like cells, MSCs, cardiomyocytes, neurons, and hepatocytes derived from hESCs, and BJ-fibroblasts (n=3). Values presented as mean±S.D. […]

The subject of assay [2] is MIN6 cells. Description: Ki67 proliferation staining of MIN6 cells. The class given is cell-based, mouse. Conditions: 1.6 μM propargite vs DMSO, 4 days. Here is the method: Cells were fixed with 10% (v/v) formalin for 20 min at room temperature (RT) and blocked in a solution of Mg^2+- and Ca^2+-free PBS containing 5% horse serum and 0.3% Triton-X for 1 h at room temperature and followed by incubation with primary antibody at 4 °C overnight. The following primary antibodies and dilutions have been used in this study: goat anti-SOX17 (1:500, R&D system, AF1924), rabbit anti-FOXA2 (1:500, Upstate, 07-633), goat anti-PDX1 (1:500, R&D system, AF2419), mouse anti-NKX6.1 (1:100; BCBC, Ab2024), guinea pig anti-INS (1:1000, Dako, A0564), guinea pig anti-GLUCAGON (1:500, Linco, 4031), mouse anti-Ki67 (1:100, Life technologies, 556003), mouse anti-AMYLASE (1:100, Santa Cruz, sc-46657), rabbit anti-Active Caspase-3 (1:500, BD Bioscience, 559565), mouse anti-Troponin T (1:500, Thermo Scientific, MA5-12960), mouse anti-Actin, Cardiac (1:300, Sigma, A9357), rabbit anti-TUJ1 (1:500, Covance, MRB-435P), Chicken anti-MAP2 (1:1000, Abcam, Ab5392), mouse anti-HuC/D (1:500, Invitrogen, A-21271), mouse anti-MAP2 (1:1500, Sigma, M1406), rabbit anti-TH (1:500, Pel freeze, P40101-0), rat-anti-CTIP2 (1:500, Abcam, ab18465), goat anti-FOXA2 (1:200, R&D, 463783). Donkey anti-guinea pig, mouse, goat, rabbit or chicken secondary antibodies conjugated with Alexa-Fluor-488, Alexa-Fluor-594 or Alexa-Fluor-647 fluorophore (1:500, Life technologies) were used. […]

Take “2-(4-tert-butylphenoxy)-cyclohexyl prop-2-yne-1-sulfonate [propargite]”: in the assay with MIN6 cells [1], the caspase-3 activation result is listed as “nor caspase-3 activation”. Also, the “susceptibility of HuC/D+ neurons” value with HuC/D+ neurons (1.6 μM propargite) is listed as “highly susceptible”. This substance gave an IC50 in the assay on HuC/D+ neurons (cell survival rate, 4 days, n=3) of 1460 nM. For the same substance, the “percentage of Ki67+/INS+ cells” value with MIN6 cells [2] is “No significant difference”.
